Values quoted from earlier work in US9138422B2, “Method of using antimycin A to downregulate Wnt/b-catenin pathway to treat gefitinib resistant cancer” (priority 2011, dated 2015).
Like-named read-outs stand apart in the source and are kept apart here.

Tested on: NSCLC (lung adenocarcinoma) patients
Conditions: cited from earlier work

| Compound | median progression free survival (second line treatment after chemotherapy) [months] | median progression free survival (first-line treatment, sensitive EGFR mutated patients) |
| --- | --- | --- |
| C#Cc1cccc(Nc2ncnc3cc(OCCOC)c(OCCOC)cc23)c1 [erlotinib] | 2.2 | – |
| COc1cc2ncnc(Nc3ccc(F)c(Cl)c3)c2cc1OCCCN1CCOCC1 [gefitinib] | – | about 10 months |
